The subject of series [1] is human colorectal HCT-116 cancer cell line. Nature of the series: In vitro cytotoxic screening (MTT assay), HCT-116. As to conditions: for Percentage cytotoxicity on HCT-116: average ± standard deviation; for IC50: Homo sapiens, HCT-116, 48 h incubation, mean of three values, read-out: IC50 (Mean ± SD) HCT-116. The class given is cell-based. Background: Tetrazolium dyes change colour on reduction, which living cells bring about.

In series [2] the test system is human prostate PC-3 cancer cell line. Put plainly: In vitro cytotoxic screening (MTT assay), PC-3. The series is classed as cell-based. Conditions: for Percentage cytotoxicity on PC-3: average ± standard deviation; for IC50: Homo sapiens, PC-3, 48 h incubation, mean of three values, read-out: IC50 (Mean ± SD) PC-3.
Series [3] concerns human skin normal cell line (BJ-1). Put plainly: Cytotoxicity on normal cells (MTT assay), BJ-1. The class given is cell-based. As to conditions: for Percentage cytotoxicity on normal BJ1 human skin fibroblast cell line: average ± standard deviation; for IC50: Homo sapiens, BJ-1 normal skin cells, 48 h incubation, mean of three values, read-out: IC50 (Mean ± SD) BJ-1. The procedure: It can therefore be concluded that 10b presents a safer cytotoxicity profile than 10e.
The cell lines were obtained from Karolinska Center, Department of Oncology and Pathology, Karolinska Institute and Hospital, Stockholm, Sweden. as follows: human breast MCF-7, colorectal HCT-116 and prostate PC-3 cancer cell lines and human skin normal BJ-1 cell line. Exponentially, cells were cultured at a concentration of 10^4 cells/well for 24 h, afterwards fresh medium containing different concentrations of the tested samples was added. Serial two-fold dilution of the tested samples were added using a multichannel pipette. Moreover, all cells were cultivated at 37 °C, 5% CO2 and 95% humidity. Also, incubation of control cells occurred at 37 °C. […] After rinsing the wells using water until stain free, 30% glacial acetic acid was added to all wells with shaking the plates on a Microplate reader (TECAN, Inc.) to measure the absorbance at a wavelength of 490 nm. The cytotoxicity was estimated by IC50 in μM, which is the concentration that inhibits 50% of growth of cancer cells. […]
1.1. In vitro cytotoxic screening
The cell lines were obtained from Karolinska Center, Department of Oncology and Pathology, Karolinska Institute and Hospital, Stockholm, Sweden. as follows: human breast MCF-7, colorectal HCT-116 and prostate PC-3 cancer cell lines and human skin normal BJ-1 cell line. Exponentially, cells were placed in 10^4 cells/ well for 24 h, and then add fresh medium which containing different concentration of the tested sample. Serial two-fold dilution of the tested sample were added using a multichannel pipette. Moreover, all cells were cultivated at 37 °C, 5% CO2 and 95% humidity. Also, incubation of control cells occurred at 37 °C. […]
Rinse the wells using water until no stain. After that, add 30% glacial acetic acid to all wells with shaking plates on Microplate reader (TECAN, Inc.) to measure the absorbance, using a test wavelength of 490 nm. Besides, compare the treated samples with the control cell. The cytotoxicity was estimated by IC50 in (μ M), the concentration that inhibits 50% of growth of cancer cell. […]
The molecular docking simulation of the promising in vitro screened cyclopenta[4,5]thieno[2,3-d][1,2,4]triazolo[1,5-a]pyrimidin-9(6H)-ones 10b and 10e against EGFR and PI3K was done using the Molecular Operating Environment software (MOE-Dock) version 2014.0901. The co-crystallized structures of EGFR and PI3K kinases complexed with their native ligands, erlotinib and quinolone LXX, were downloaded from the protein data bank (PDB codes: 1M17 and 3L54, respectively). All minimizations were performed using MOE until an RMSD gradient of 0.05 kcal∙mol−1Å−1 with MMFF94x force field and the partial charges were automatically calculated. Preparation of the enzyme structures was done for molecular docking using Protonate 3D protocol with the default options in MOE. London dG scoring function and Triangle Matcher placement method were used in the docking protocol. Initially, the original ligands were re-docked into the active binding site of EGFR and PI3K kinases to assess the root-mean-square deviation values. Then, the docking studies of the newly targeted compounds were estimated within the ATP-binding sites after elimination of the co-crystallized […]
Percentage cytotoxicity of 100 µM of the compounds on human tumor cell lines*

Series [4] deals with human breast MCF-7 cancer cell line. Put plainly: In vitro cytotoxic screening (MTT assay), MCF-7. The series is classed as cell-based. As to conditions: for Percentage cytotoxicity on MCF-7: average ± standard deviation; for IC50: Homo sapiens, MCF7, MCF-7, 48 h incubation, mean of three values, read-out: IC50 (Mean ± SD) MCF-7.

The term IC50 denotes the concentration that inhibits the measured activity by half. For orientation: melting point means the temperature, or range, at which the solid turns liquid.

Consider `O=c1c2c3c(sc2nc2[nH]c(-c4c5ccccc5cc5ccccc45)nn12)CCC3` [Compound 10e, 2-(Anthracen-9-yl)-3,6,7,8-tetrahydro-9H-cyclopenta[4,5]thieno[2,3-d][1,2,4]triazolo[1,5-a]pyrimidin-9-one], for which the melting point was 101 to 103 °C. Also, in series [1] (12.5 µM), the “Percentage cytotoxicity on HCT-116” value amounted to 0.0±0.005%. Also, the “Percentage cytotoxicity on HCT-116” value in series [1] (25 µM) came out at 19.0±4.9%. Further, the “Percentage cytotoxicity on HCT-116” value in series [1] (50 µM) is reported as 34.9±2.8%. Also, the “Percentage cytotoxicity on HCT-116” value in series [1] (100 µM) is listed as 86.7±4.4%. In series [1], the IC50 worked out at 57 ± 0.61 µM. In addition, in series [2] (12.5 µM), the “Percentage cytotoxicity on PC-3” value amounted to 29.6±3.8%. The “Percentage cytotoxicity on PC-3” value in series [2] (25 µM) amounted to 56.6±1.3%. In addition, the “Percentage cytotoxicity on PC-3” value in series [2] (50 µM) was found to be 64.2±1.1%. Besides, the “Percentage cytotoxicity on PC-3” value in series [2] (100 µM) worked out at 75.9±1.3%. Further, the IC50 in series [2] was 25.2 ± 0.4 µM. The “Percentage cytotoxicity on normal BJ1 human skin fibroblast cell line” value in series [3] (12.5 µM) came out at 13.8±2.1%. Moreover, in series [3] (25 µM), the “Percentage cytotoxicity on normal BJ1 human skin fibroblast cell line” value is reported as 44.8±1.9%. The “Percentage cytotoxicity on normal BJ1 human skin fibroblast cell line” value in series [3] (50 µM) was found to be 58.1±3.2%. Also, the “Percentage cytotoxicity on normal BJ1 human skin fibroblast cell line” value in series [3] (100 µM) worked out at 83.9±1.2%. In addition, the half-inhibitory concentration (IC50) in series [3] was determined as 34.8 ± 4.5 µM. Besides, the “Percentage cytotoxicity on MCF-7” value in series [4] (12.5 µM) stood at 37.9±6.7%. Besides, the “Percentage cytotoxicity on MCF-7” value in series [4] (25 µM) came to 85.6±3.6%. Also, in series [4] (50 µM), the “Percentage cytotoxicity on MCF-7” value amounted to 97.9±1.2%. The “Percentage cytotoxicity on MCF-7” value in series [4] (100 µM) is listed as 98.3±0.5%. The IC50 in series [4] amounted to 14.5 ± 0.3 µM.
Turning to `COc1cccc2c1C(=O)c1c(O)c3c(c(O)c1C2=O)C[C@@](O)(C(=O)CO)C[C@@H]3O[C@H]1C[C@H](N)[C@H](O)[C@H](C)O1` [Doxorubicin, reference compound], the IC50 in series [1] amounted to 20.5 ± 2.1 µM; in series [2], 6.8 ± 1.2 µM; in series [3] it was 49.2 ± 1.08 µM; in series [4], 40 ± 3.9 µM.
In the case of `O=c1c2c3c(sc2nc2nc([C@H](O)[C@@H](O)[C@@H](O)[C@H](O)CO)[nH]n12)CCC3` [Compound 11b, 2-((1S,2R,3S,4R)-1,2,3,4,5-pentahydroxypentyl)-1,6,7,8-tetrahydro-9H-cyclopenta[4,5]thieno[2,3-d][1,2,4]triazolo[1,5-a]pyrimidin-9-one], the melting point was > 300 °C. In addition, the “Percentage cytotoxicity on HCT-116” value in series [1] (12.5 µM) is recorded as 18.2±2.3%. The “Percentage cytotoxicity on HCT-116” value in series [1] (25 µM) was found to be 16.1±1.6%. In addition, the “Percentage cytotoxicity on HCT-116” value in series [1] (50 µM) came to 21.8±1.9%. The “Percentage cytotoxicity on HCT-116” value in series [1] (100 µM) is reported as 18.7±7.6%. Further, the “Percentage cytotoxicity on PC-3” value in series [2] (12.5 µM) is on record as 0.0±0.005%. For the same compound, the “Percentage cytotoxicity on PC-3” value in series [2] (25 µM) stood at 0.0±0.005%. Further, the “Percentage cytotoxicity on PC-3” value in series [2] (50 µM) was determined as 0.0±0.005%. Besides, the “Percentage cytotoxicity on PC-3” value in series [2] (100 µM) amounted to 12.7±3.8%. The “Percentage cytotoxicity on MCF-7” value in series [4] (12.5 µM) was 0.0±0.005%. In addition, the “Percentage cytotoxicity on MCF-7” value in series [4] (25 µM) came to 0.0±0.005%. Also, the “Percentage cytotoxicity on MCF-7” value in series [4] (50 µM) turned out to be 22.1±6.9%. Further, the “Percentage cytotoxicity on MCF-7” value in series [4] (100 µM) came to 39.4±8.3%.

The values above are taken from article PMC10934261, “Designing Potent Anti-Cancer Agents: Synthesis and Molecular Docking Studies of Thieno[2,3-d][1,2,4]triazolo[1,5-a]pyrimidine Derivatives” (Molecules, 2024).
